The results in this text go back to the Kinase Knowledgebase extract (Sharma et al. 2016).

Test [1] concerns the target MAPK14 (human) (UniProt Q16539). Description: Inhibition of TNF-alpha Production in LPS-Stimulated PBMCs. The note with it: pbmc.
Test [2] shares this target. Description: Inhibition of IL-1 Production in LPS-Stimulated PBMCs. The note with it: pbmc.
For test [3] the target is unchanged. Nature of the test: Inhibition of IL-6 Production in Whole Blood.
Test [4] shares this target. Description: Inhibition of TNF Production in Whole Blood.
For test [5] the target is unchanged. Description: Inhibition of MAPK14 Kinase Activity.
Test [6] has the same target. Description: Inhibition of IL-1 Production in Whole Blood.

Sequence of MAPK14 (human) (Q16539 whole entry, looked up): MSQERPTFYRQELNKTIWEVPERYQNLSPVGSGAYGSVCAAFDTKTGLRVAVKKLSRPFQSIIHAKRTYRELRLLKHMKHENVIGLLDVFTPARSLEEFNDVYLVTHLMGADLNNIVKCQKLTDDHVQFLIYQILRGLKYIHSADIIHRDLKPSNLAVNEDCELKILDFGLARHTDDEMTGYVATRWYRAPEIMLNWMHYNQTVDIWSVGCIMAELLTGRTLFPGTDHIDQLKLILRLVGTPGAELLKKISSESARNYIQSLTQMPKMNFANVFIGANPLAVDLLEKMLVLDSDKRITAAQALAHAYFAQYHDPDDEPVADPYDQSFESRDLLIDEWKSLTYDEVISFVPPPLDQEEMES

What is called IC50 is the concentration that gives 50% inhibition. Lower therefore signals inhibition by little substance. Regarding `CN(C)C(=O)c1ccccc1Sc1ccc2c(-c3c(Cl)cccc3Cl)c(=O)ncn2n1`, the IC50 at MAPK14 (human) [1] and on MAPK14 (human) [2] was greater than 500 nM each time.
Take `O=c1ncn2nc(Sc3ccccc3)ccc2c1-c1ccccc1Cl`: the IC50 against MAPK14 (human) [1] and at MAPK14 (human) [2] was greater than 500 nM in each case.
As to `Nc1ccc(Cl)c(-c2c(=O)ncn3nc(Sc4ccc(F)cc4)ccc23)c1Cl`, the IC50 on MAPK14 (human) [3] was greater than 500 nM; against MAPK14 (human) [4] it was greater than 500 nM; at MAPK14 (human) [5], 100 to 1000 nM; on MAPK14 (human) [6], greater than 500 nM; against MAPK14 (human) [1] it was greater than 500 nM; at MAPK14 (human) [2], 100 to 500 nM.
As a reminder, the Ki is the dissociation constant of the complex between target and ligand, obtained from inhibition or displacement. Low readings indicate a stronger hold on the target, high ones a looser hold on the target. Compound `O=c1ncn2nc(Sc3ccccc3)ccc2c1-c1ccccc1` had a Ki at MAPK14 (human) [5] greater than 20000 nM.
`NC(=O)C(c1ccc(C(O)c2ccccc2)cn1)c1c(Cl)cccc1Cl` (centres undefined): the IC50 against MAPK14 (human) [2] is 100 to 500 nM.
`NC(=O)C(c1cccc(-c2ccccc2)n1)c1cc(Cl)ccc1Cl` (centres undefined): the IC50 at MAPK14 (human) [3] is greater than 500 nM; against MAPK14 (human) [4] it was greater than 500 nM; against MAPK14 (human) [6], greater than 500 nM; on MAPK14 (human) [1] it was greater than 500 nM; against MAPK14 (human) [2], 100 to 500 nM.
With `COc1ccc(-c2c(=O)ncn3nc(Sc4ccc(F)cc4)ccc23)c(Cl)c1OC`, the IC50 at MAPK14 (human) [3], at MAPK14 (human) [4], against MAPK14 (human) [6], at MAPK14 (human) [1] and at MAPK14 (human) [2] was greater than 500 nM each time.
`COC(=O)CCc1ccc(SC2=NN3CNC(=O)C(c4c(Cl)cccc4Cl)=C3C=C2C)cc1`: the IC50 against MAPK14 (human) [3] is greater than 500 nM; on MAPK14 (human) [4], greater than 500 nM; against MAPK14 (human) [6] it was greater than 500 nM; against MAPK14 (human) [1], greater than 500 nM; on MAPK14 (human) [2], 100 to 500 nM.
With `NC(=O)C(c1cccc(-c2ccccc2CNCCO)n1)c1c(Cl)cccc1Cl` (centres undefined), the IC50 against MAPK14 (human) [1] and against MAPK14 (human) [2] was greater than 500 nM each time.
As for `CC(C)c1ccccc1Sc1ccc2c(-c3c(Cl)cccc3Cl)c(=O)ncn2n1`, the IC50 against MAPK14 (human) [1] and against MAPK14 (human) [2] was greater than 500 nM each time.
On to `O=c1ncn2nc(Sc3ccccc3)ccc2c1-c1c(F)cccc1F`, for which the IC50 on MAPK14 (human) [1] and against MAPK14 (human) [2] was greater than 500 nM each time.
For `Cc1ccc(Sc2ccc3c(-c4c(Cl)cccc4Cl)c(=O)ncn3n2)cc1C`, the IC50 against MAPK14 (human) [1] and on MAPK14 (human) [2] was greater than 500 nM in each case.
Regarding `O=c1ncn2nc(Sc3ccccc3)ccc2c1-c1ccc(Cl)c(Cl)c1`, the IC50 on MAPK14 (human) [1] and against MAPK14 (human) [2] was greater than 500 nM throughout.
Turning to `COc1ccccc1-c1c(=O)ncn2nc(Sc3ccccc3)ccc12`, the IC50 on MAPK14 (human) [1] and against MAPK14 (human) [2] was greater than 500 nM throughout.
Consider `NC(=O)C(c1cccc(-c2cccs2)n1)c1c(Cl)cccc1Cl` (centres undefined), for which the IC50 at MAPK14 (human) [1] and against MAPK14 (human) [2] was greater than 500 nM throughout.
In the case of `CNCc1ccccc1-c1cccc(C(C(N)=O)c2c(Cl)cccc2Cl)n1` (centres undefined), the IC50 against MAPK14 (human) [3], at MAPK14 (human) [4], at MAPK14 (human) [6], against MAPK14 (human) [1] and against MAPK14 (human) [2] was greater than 500 nM in each case.
For the compound `NC(=O)C(c1cccc(-c2ccccc2CN2CCNCC2)n1)c1c(Cl)cccc1Cl` (centres undefined), the IC50 on MAPK14 (human) [3], on MAPK14 (human) [4], on MAPK14 (human) [6], against MAPK14 (human) [1] and against MAPK14 (human) [2] was greater than 500 nM in each case.
In the case of `Cc1cc(F)ccc1SC1=NN2CNC(=O)C(c3c(F)cccc3F)=C2C=C1`, the IC50 against MAPK14 (human) [5] was less than 100 nM; against MAPK14 (human) [1], greater than 500 nM; on MAPK14 (human) [2], 100 to 500 nM.
Turning to `Nc1cc(C(F)(F)F)ccc1SC1=NN2CNC(=O)C(c3c(Cl)cccc3Cl)=C2C=C1`, the IC50 on MAPK14 (human) [1] was greater than 500 nM; against MAPK14 (human) [2], 100 to 500 nM.
With `N=C(N)Nc1cc(F)c(F)cc1SC1=NN2CNC(=O)C(c3c(Cl)cccc3Cl)=C2C=C1`, the IC50 against MAPK14 (human) [1] and against MAPK14 (human) [2] was greater than 500 nM in each case.
In the case of `Cc1ccccc1-c1c(=O)ncn2nc(Sc3ccccc3)ccc12`, the IC50 against MAPK14 (human) [1] and on MAPK14 (human) [2] was greater than 500 nM in each case.
On to `CN(C)C=Nc1ccc(-c2c(=O)ncn3nc(Sc4cc(F)ccc4Cl)ccc23)c(Cl)c1`, for which the values for the IC50 against MAPK14 (human) [5], against MAPK14 (human) [1] and at MAPK14 (human) [2] were 100 to 1000 nM, greater than 500 nM and 100 to 500 nM, respectively.
In the case of `CCc1cc(Cl)c(C2=C3C=CC(Sc4ccc(F)cc4)=NN3CNC2=O)cc1O`, the IC50 at MAPK14 (human) [3] was greater than 500 nM; against MAPK14 (human) [4] it was greater than 500 nM; against MAPK14 (human) [5] it was less than 100 nM; at MAPK14 (human) [6], greater than 500 nM; at MAPK14 (human) [1], greater than 500 nM; against MAPK14 (human) [2], 100 to 500 nM.
For `COC(=O)c1ccccc1Sc1ccc2c(-c3c(Cl)cccc3Cl)c(=O)ncn2n1`, the IC50 against MAPK14 (human) [4] is greater than 500 nM; on MAPK14 (human) [6], greater than 500 nM; on MAPK14 (human) [1], 100 to 500 nM; against MAPK14 (human) [2] it was less than 100 nM.
Turning to `Cc1cccc(Sc2ccc3c(-c4c(Cl)cccc4Cl)c(=O)ncn3n2)c1`, the IC50 against MAPK14 (human) [1] and on MAPK14 (human) [2] was 100 to 500 nM each time.
On to `COc1ccc(-c2c(=O)ncn3nc(Sc4ccc(F)cc4)ccc23)cc1OC`, for which the IC50 on MAPK14 (human) [5] was 100 to 1000 nM; against MAPK14 (human) [1], greater than 500 nM; against MAPK14 (human) [2] it was greater than 500 nM.
As to `NC(=O)Nc1cc(F)ccc1SC1=NN2CNC(=O)C(c3c(Cl)cccc3Cl)=C2C=C1`, the IC50 at MAPK14 (human) [1] and at MAPK14 (human) [2] was greater than 500 nM in each case.
Consider `O=C(O)c1cc(F)ccc1Sc1ccc2c(-c3c(Cl)cccc3Cl)c(=O)ncn2n1`, for which the IC50 against MAPK14 (human) [5] is greater than 1000 nM; against MAPK14 (human) [1] it was greater than 500 nM; against MAPK14 (human) [2], greater than 500 nM.
As to `O=c1ncn2nc(Sc3ccccc3)ccc2c1-c1c(F)cccc1C(F)(F)F`, the IC50 on MAPK14 (human) [1] and at MAPK14 (human) [2] was greater than 500 nM throughout.
Consider `NC(=O)C(c1cccc(-c2ccccc2CN2CCCC2)n1)c1c(Cl)cccc1Cl` (centres undefined), for which the results for the IC50 on MAPK14 (human) [1] and at MAPK14 (human) [2] were greater than 500 nM and 100 to 500 nM, respectively.
As for `Cc1c(Sc2ccccc2)nn2cnc(=O)c(-c3c(Cl)cccc3Cl)c2c1C`, the IC50 against MAPK14 (human) [1] and against MAPK14 (human) [2] was greater than 500 nM each time.
At MAPK14 (human) [2], `NC(=O)C(c1ccc(C(=O)c2ccccc2)cn1)c1c(Cl)cccc1Cl` (centres undefined) showed an IC50 greater than 500 nM.
Consider `Cc1ccc(Sc2ccc3c(-c4c(Cl)cccc4Cl)c(=O)ncn3n2)cc1`, for which the IC50 is greater than 500 nM against MAPK14 (human) [1] and 100 to 500 nM on MAPK14 (human) [2].
On to `O=C1NCN2N=C(Sc3ccc(F)cc3F)C=CC2=C1c1cc2c(cc1Cl)OCO2`, for which the IC50 on MAPK14 (human) [3] is less than 250 nM; against MAPK14 (human) [4], less than 250 nM; at MAPK14 (human) [5], less than 100 nM; against MAPK14 (human) [6], less than 250 nM; at MAPK14 (human) [1], less than 100 nM; against MAPK14 (human) [2], less than 100 nM.
`COc1ccc(-c2cccc(C(C(N)=O)c3c(Cl)cccc3Cl)n2)cc1` (centres undefined) displayed an IC50 against MAPK14 (human) [2] greater than 500 nM.
